According to US20120101024A1, “Methods and Compositions for Differentiating Embryonic Stem Cells” (REGENERATIVE RESEARCH FOUNDATION, priority 2010, published 2012):

Key:
[1] = tested on: hESCs; test: Dual SMAD protocol with substituted factors, PAX6 and SMAD1 at day 7 (BMP signaling); type: cell-based, human; conditions: after 7 days of differentiation
Description: (§1) Feeder free neural induction was carried out as previously described (Chambers et al., supra). Briefly, hESC cultures (WA-09 cells) were disaggregated using Accutase (Innovative Cell Technologies, Inc., San Diego, Calif.) for 20 minutes, washed using hESC media and pre-plated on gelatin for 1 hour at 37° C. in the presence of ROCK inhibitor (Sigma, Carlsbad, Calif.) to remove MEFs. The nonadherent hESCs were washed and plated at a density of 20,000 cells/cm^2 on BD Matrigel™ matrix (BD Biosciences, San Diego, Calif.) coated dishes in MEF conditioned hESCs media (CM) spiked with 10 ng/mL of FGF-2 and ROCK-inhibitor (Sigma). The ROCK inhibitor was withdrawn, and hESCs were allowed to expand in CM for 3 days or until they were nearly confluent. The initial differentiation media conditions included knock out serum replacement (KSR) media with […] TGF-β inhibitor (SB431542, Tocris) and 500 ng/mL of Noggin (R&D Systems). Upon day 5 of differentiation, increasing amounts of N2 media (Fasano et al., 2010, supra) (25%, 50%, 75%) was added to the KSR media every two days while maintaining 500 ng/mL of Noggin and TGF-β inhibitor.
(§2) Antibodies used for performing immunocytochemistry, methods for which are described in Fasano et al., 2007, and 2010, supra, were obtained commercially as follows: PAX6 (Developmental Studies Hybridoma Bank (Iowa City, Iowa)), SOX2 (Santa Cruz Biotechnology (SCBT) (Santa Cruz, Calif.)), Nestin (Chemicon (Temecula, Calif.)), Nanog (SCBT), OCT-4 (SCBT), SMAD3 and SMAD1 (Cell Signaling Technology, Inc., Danvers, Mass.), FOXG1 (NeuraCell, Rensselaer, N.Y.), SSEA-4, SSEA-3, SSEA-1 (BD Pharmingen (San Diego, Calif.)). Alexa secondary antibodies were purchased from Invitrogen.
The directed neural differentiation paradigm used in this study employed the use of both a TGF-beta blocker (SB431542) and Noggin, a BMP blocker, as it has been shown that blocking only TGF-beta is not sufficient to drive neural commitment. While CRIPTO works to enhance NODAL signaling, it has been shown that NODAL itself can bind up BMPs and thus lower BMP signaling. Because NPTX1 depletes available CRIPTO in the extracelluar space and cell surface, it seemed plausible that the resulting excess Nodal could dampen BMP signaling. To test whether NPTX1 expression can reduce BMP signaling, the dual SMAD protocol was employed to generate neural cells (addition of Noggin and TGF-beta inhibitor SB431542).
In one condition, Noggin was substituted with a CRIPTO blocking antibody to see if CRIPTO loss could result in robust neural differentiation. As a positive control for BMP signaling, another group was treated with high levels of BMP7. After 7 days of differentiation, neural marker expression and SMAD1 levels were determined.

[2] = tested on: NPTX1; test: NPTX1 knock down by lentiviral shRNA in hESCs, message level; type: cell-based, human; conditions: day 3 of neural differentiation
Description: as §1
(§3) Total RNA was extracted using an RNeasy kit (Qiagen). For each sample, 1 μg of total RNA was treated for DNA contamination and reverse transcribed using Quantitect first strand kit (Qiagen). Amplified material was detected using Taqman probes and PCR mix (ABI) on a Mastercycler RealPlex2 (Eppendorf). All results were normalized to a HPRT control and were from 3 technical replicates of 3 independent biological samples at each data point.
NPTX1 open reading frame (ORF) was generated by PCR. This fragment was cloned into the BamH1 and NotI sites of the lentiviral vector, pCDH-EF1-MCS-IRES GFP(SBI Biosciences). […] Viral titers were measured by serial dilution on NIH 3T3 cells (ATCC Deposit No. CRL-1658) followed by flow cytometric analysis after 72 hours. […]

[3] = tested on: hESCs (WA-09); test: Neural induction of hESCs (dual SMAD inhibition protocol), marker expression by qRT-PCR / immunostaining; type: cell-based, human; conditions: for expression of the neural genes SOX1 and PAX6 (mRNA) compared to control: control empty vector
Description: as §1, §3
Cells were fixed using 4% paraformaldehyde for 15 minutes, washed with PBS, permeabilized using 0.3% Triton X in PBS, and blocked using 10% normal goat serum. Primary antibody used for microscopy was PAX6 (DSHB).
hESCs (WA-09; passages 35) were dissociated and plated on Matrigel with the ROCK inhibitor as single cells. 24 hrs post plating the ESCs were transduced with either control (empty vector), NPTX1 shRNA, or NPTX10RF containing vectors. One (1) week later, GFP-expressing colonies were manually picked and plated on MEFs. Cells were then expanded, tested for mycoplasma.
as §2

[4] = tested on: hESCs (WA-09); test: Neurosphere assay on cells isolated at day 7 of differentiation; type: cell-based, human
Text: To assess the neural character of the cells generated, the resulting cells were isolated at day 7 of differentiation and subjected to a neurosphere assay. […] In control conditions, the neural genes PAX6 and SOX1 started to appear around day 4 (FIGS. 4B and 4C, respectively).

[5] = tested on: hESCs; test: Recombinant CRP added to hESCs in neural differentiation conditions, mRNA at day 7; type: cell-based, human; conditions: 2 μg/ml, administered on days 0, 3 and 5; 7 days
Description: as §3
C-Reactive Protein (CRP) is a pentraxin protein that is found in the blood, and levels of which rise in response to stress and/or inflammation. […] It was also reported that, when CRP levels went over a particular threshold at 4-weeks of gestation, the time at which nervous system development occurs, an increased rate of miscarriage was identified. In the present Example, it was thus tested whether another member of the pentraxin protein family, in addition to NPTX1 might play an important role in neural differentiation. Recombinant CRP(R&D Systems, 2 μg/ml) or a vehicle control was added to hESCs cultured in conditions that would allow for neural development to proceed normally in the dish. […] Such acceleration of human development could be a cue for miscarriage and/or neural birth defects in fetuses exposed to high levels of CRP during this critical time of gestation.

[6] = biological target: T1, CRIPTO (Homo sapiens, UniProt P13385); test: Co-immunoprecipitation of CRIPTO with NPTX1-His from membrane fraction of hESCs; type: binding; conditions: conditioned media applied to hESCs for 1 hour
T1 construct: endogenous in cells; host or cells: hESCs (WA-09), membrane fraction of lysed cells
T1 sequence (P13385 31-150): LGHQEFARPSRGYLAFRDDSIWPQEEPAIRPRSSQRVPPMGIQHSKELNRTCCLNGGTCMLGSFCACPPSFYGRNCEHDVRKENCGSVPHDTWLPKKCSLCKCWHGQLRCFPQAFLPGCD

[7] = day 7 of neural differentiation

NC(=O)c1ccc(-c2nc(-c3ccc4c(c3)OCO4)c(-c3ccccn3)[nH]2)cc1 [SB431542, reference compound]
PAX6 expression [1]: few PAX6 cells | pSMAD1 / SMAD1 levels [1]: high pSMAD1 levels

shRNA1: lentiviral NPTX1 shRNA, AGT AAA GAG TGG AGA AAG A (SEQ ID NO: 42); did not knock down, used as negative control (AGTAAAGAGTGGAGAAAGA)
knock down of NPTX1 at the message level [2]: did not knock down NPTX1 | expression of the neural genes SOX1 and PAX6 (mRNA) compared to control [3, 7]: no effect

shRNA2: lentiviral NPTX1 shRNA, ACG TGT AGG TTG AGA ACA A (SEQ ID NO: 43) (ACGTGTAGGTTGAGAACAA)
knock down of NPTX1 at the message level [2]: successfully knocked down NPTX1 | number of neurospheres compared to control [4]: significant reduction | SMAD2 and SMAD3 gene expression (RT-PCR) ([3]; NPTX1 knockdown hESCs): elevated gene expression | NANOG and OCT4 levels compared to control ([3]; day 7 of differentiation): elevated levels | CRIPTO expression compared to control-treated cells [3, 7]: 20 fold | expression of the neural genes SOX1 and PAX6 (mRNA) compared to control [3, 7]: significantly reduced levels | gene expression of PAX6 and SOX1 along the time course compared to control ([3]; time course of neural differentiation): much delayed and at much lower levels

shRNA3: lentiviral NPTX1 shRNA, GAG AAA GGT CAG AAA GAC A (SEQ ID NO: 44) (GAGAAAGGTCAGAAAGACA)
knock down of NPTX1 at the message level [2]: successfully knocked down NPTX1 | expression of the neural genes SOX1 and PAX6 (mRNA) compared to control [3, 7]: significantly reduced levels | expression of early neuroectodermal markers GBX2 and SOX2 (qRT-PCR) ([3]; days 0-7, days 5 and 7 statistically significant): drastic reduction

B1: BMP7: positive control for BMP signaling, high levels of BMP7 (protein, UniProt P18075 293-431, looked up)
Bone morphogenetic protein 7: STGSKQRSQNRSKTPKNQEALRMANVAENSSSDQRQACKKHELYVSFRDLGWQDWIIAPEGYAAYYCEGECAFPLNSYMNATNHAIVQTLVHFINPETVPKPCCAPTQLNAISVLYFDDSSNVILKKYRNMVVRACGCH
PAX6 expression [1]: few PAX6 cells | pSMAD1 / SMAD1 levels [1]: high pSMAD1 levels

B2: CRP: recombinant C-reactive protein (R&D Systems), a pentraxin protein (protein, UniProt P02741 19-224, looked up)
C-reactive protein: QTDMSRKAFVFPKESDTSYVSLKAPLTKPLKAFTVCLHFYTELSSTRGYSIFSYATKRQDNEILIFWSKDIGYSFTVGGSEILFEVPEVTVAPVHICTSWESASGIVEFWVDGKPRVRKSLKKGYTVGAEASIILGQEQDSFGGNFEGSQSLVGDIGNVNMWDFVLSPDEINTIYLGGPFSPNVLNWRALKYEVQGEVFTKPQLWP
NPTX1 expression [5]: increase | neural marker PAX6 compared to the control [5]: striking up-regulation

B3: NPTX1-His: NPTX1 protein with six HIS amino acids on the N-terminus, in conditioned media (protein)
chain: HHHHHHQDFGPTRFICTSVPVDADMCAASVAAGGAEELRSSVLQLRETVLQQKETILSQKETIRELTAKLGRCESQSTLDPGAGEARAGGGRKQPGSGKNTMGDLSRTPAAETLSQLGQTLQSLKTRLENLEQYSRLNSSSQTNSLKDLLQSKIDELERQVLSRVNTLEEGKGGPRNDTEERVKIETALTSLHQRISELEKGQKDNRPGDKFQLTFPLRTNYMYAKVKKSLPEMYAFTVCMWLKSSATPGVGTPFSYAVPGQANELVLIEWGNNPMEILINDKVAKLPFVINDGKWHHICVTWTTRDGVWEAYQDGTQGGSGENLAPYHPIKPQGVLVLGQEQDTLGGGFDATQAFVGELAHFNIWDRKLTPGEVYNLATCSTKALSGNVIAWAESHIEIYGGATKWTFEACRQIN
co-immunoprecipitation with CRIPTO [6]: coimmunoprecipitate
